Assay [1] concerns Streptococcus mutans. Description: MIC test (broth microdilution, turbidity). The class given is cell-based. As to conditions: TSB, 37° C., 24 hours. How it is done:
(§1) The MIC of a material composition was determined by the following method. A fresh culture of the test inoculum of each bacterium was diluted in sterile 0.1% special peptone solution to give a concentration of approximately 10^6 colony forming units (cfu) per ml. Test samples of material were diluted in sterile tryptone soya broth (TSB) to give an initial stock solution, typically of 1% or 2% (10,000 or 20,000 ppm). However, it will be appreciated that the concentration of the initial stock solution of material can be varied if desired to investigate a different range of concentrations. Each row of a standard, 96-well plastic microtitre plate (labelled A-H) was allocated to one sample, i. e. eight samples per plate. Row H contained only TSB for use as a bacterial control to indicate the degree of turbidity resulting from bacterial growth in the absence of any test material.
(§2) Aseptically, 200 μl of the initial dilution of material was transferred to the 1st and 7th well of the appropriate row. All other test wells were filled with 100 μl of sterile TSB using an 8- channel micro-pipette. The contents of each of the wells in column 1 were mixed by sucking samples up and down the pipette tips, before 100 μl was transferred to column 2.
(§3) The same sterile pipette tips were used to transfer 100 μl of each well in column 7 into the appropriate well in column 8. This set of eight tips was then discarded into disinfectant solution. Using eight fresh, sterile tips the process was repeated by transferring 100 μl from column 2 into column 3 (and into 8 and 9). The process was continued until all the wells in columns 6 and 12 contained 200 μl. After mixing, 100 μl was discarded from wells in columns 6 and 12 to waste. Finally, 100 μl of pre-diluted bacterial test culture (approx 10^6 cfu/ml) was added, thus giving a final volume of 200 μl in each well.
(§4) A blank plate was prepared for each set of eight samples in exactly the same way, except that 100 μl of sterile TSB was added instead of the bacterial culture. This plate was used as the control plate against which the test plate (s) could be read.
(§5) Test and control plates were then sealed using autoclave tape and incubated at 37° C. for 24 hours. The wells were examined after 24 hours for turbidity to determine if the material had inhibited growth or not. Plates are then read in a suitable microtitre plate reader at an absorbance of 540 nm as a measure of turbidity resulting from bacterial growth. The control, un-inoculated plate for each set of samples was read first, and the plate reader then programmed to use the control readings to blank all other plate readings for the inoculated plates for the same set of test materials (i. e. removing turbidity due to material and possible colour changes during incubation). Thus, the corrected readings generated were absorbances resulting from turbidity from bacterial growth.

Assay [2] concerns Escherichia coli. Nature of the assay: MIC test (broth microdilution, turbidity). The class given is cell-based. As to conditions: TSB, 37° C., 24 hours. The protocol:
as §1, §2, §3, §4, §5

Assay [3] concerns Staphylococcus aureus. Nature of the assay: MIC test (broth microdilution, turbidity). Type of assay: cell-based. As to conditions: TSB, 37° C., 24 hours. The protocol:
as §1, §2, §3, §4, §5

For assay [4], the system named is S. aureus. Description: Kill time suspension test. Type of assay: cell-based, Staphylococcus aureus.
Experimental: This is set aside for approximately 2 minutes. 8 ml of test product is added, a timing clock started and immediately vortexed for 5 seconds.
To 8 ml of ‘Test Sample’ add 1 ml of sterile purified water and 1 ml of synthetic saliva. This is the ‘validation solution’.
The mean number of survivors is calculated for the each test and appropriate control samples, and expressed as the log to the base 10 (Log count).

Take `Cc1cc(O)ccc1C(C)C` [IPMP, 4-isopropyl-3-methylphenol]: the MIC in assay [1] stood at 1250 parts per million; in assay [2], 312 parts per million; in assay [3], 156 parts per million.

Regarding zinc gluconate [Zn Gluconate], the MIC is reported as 6250 parts per million in assay [1], 1560 parts per million in assay [2] and 6250 parts per million in assay [3]. Also, the “kill (in words)” value in assay [4] is listed as “ineffective”.

(Values after patent US20120039820A1 (Glaxo Group Limited, priority 2009, published 2012).)
